In PubChem BioAssay (NCI) one finds TGI data, which are given here for four compounds.

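Compound exposure: 48 hours, 5 concentrations, 96-well plates. TGI denotes the concentration required for complete inhibition of growth.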

What all share (assay): growth of human tumour cells (NCI), 48 h
In assay [1] the test system is MDA-N.
For assay [2], the system named is CAKI-1 renal.
In assay [3] the test system is OVCAR-4 ovarian.
The test system of assay [4] is SK-MEL-2 melanoma.
The test system of assay [5] is RPMI-8226 leukemia.
Assay [6] relates to T-47D breast.
Assay [7] concerns HCT-116 colon.
The test system of assay [8] is KM12 colon.
In assay [9] the test system is 786-0 renal.
Assay [10] concerns HOP-92 NSCLC.
Assay [11] concerns SF-539 CNS.
Assay [12] concerns NCI-H460 lung.
Assay [13] has as its system MDA-MB-435.
The subject of assay [14] is DU-145 prostate.
Assay [15] concerns SK-MEL-28 melanoma.
The subject of assay [16] is NCI/ADR-RES ovarian.
For assay [17], the system named is MDA-MB-231 breast.
The test system of assay [18] is RXF 393 renal.
The subject of assay [19] is SK-OV-3 ovarian.
Assay [20] has as its system K-562 leukemia.

Consider `CC1CCCCN1CC(=O)c1ccc2c(c1)Sc1ccccc1O2` (stereo not given), for which the TGI in assay [1] is 32.2 µM; in assay [2], 37.5 µM; in assay [3], 28.6 µM; in [4], 32.4 µM; in [5], over 100 µM; in assay [6] it was 48 µM. Moreover, the TGI is 30.7 µM in assay [7]; 30.3 µM in assay [8]; 31.9 µM in assay [9]; 30.5 µM in assay [10]; 34 µM in assay [11]; 29.7 µM in [12]. Besides, the TGI in assay [13] came out at 29.8 µM; in assay [14], 67.8 µM; in assay [15] it was 33.1 µM; in assay [16], 35.5 µM; in assay [17] it was 54.6 µM; in assay [18], 31.1 µM. The TGI was 31.6 µM in assay [19] and over 100 µM in assay [20].
Turning to `COC(CC1(/C=C/O[Si](C(C)C)(C(C)C)C(C)C)C(=O)N(COCC[Si](C)(C)C)c2ccccc21)OC` (stereo not given), the TGI in [1] was over 100 µM; in [2], over 100 µM; in assay [3], over 100 µM; in assay [4], 26.8 µM; in [5] it was over 100 µM; in assay [6], over 100 µM. In addition, the TGI is 71.6 µM in [7]; over 100 µM in assay [8]; over 100 µM in assay [9]; 60 µM in assay [10]; 58.7 µM in assay [11]; over 100 µM in assay [12]. Moreover, the TGI in [13] is 60.9 µM; in [14], over 100 µM; in assay [15], 60 µM; in [16], over 100 µM; in assay [17], over 100 µM; in [18], 29.5 µM. In addition, the results for the TGI in [19] and in [20] were 51.2 µM and over 100 µM, respectively.
Take `CC(C)(C)OC(=O)NCCC(=O)NC1(c2cc3ccccc3s2)CCCCC1`: the TGI stood at 34.2 µM in assay [1]; 48.6 µM in [2]; 29.1 µM in assay [3]; 44.9 µM in [4]; 20.5 µM in assay [5]; 33.3 µM in assay [6]. Moreover, the TGI was 27 µM in assay [7]; 33.5 µM in assay [8]; 35.7 µM in [9]; 33.7 µM in assay [10]; 29.2 µM in assay [11]; 34.3 µM in assay [12]. Further, the TGI in assay [13] came out at 33.1 µM; in assay [14], 33.6 µM; in assay [15] it was 35 µM; in assay [16], 41.6 µM; in [17], 38.4 µM; in [18], 26.2 µM. Further, the TGI in [19] amounted to 60.1 µM; in [20] it was 28.9 µM.
Turning to `CN(C)CC1CCC/C(=C\c2ccc(OC(=O)/C=C/c3ccccc3)cc2)C1=O` (stereo not given), the TGI in assay [1] was 6.28 µM; in [2], 3.38 µM; in [3], 9.44 µM; in assay [4], 7.79 µM; in assay [5], 6.88 µM; in assay [6] it was 2.58 µM. For the same compound, the TGI amounted to 2.8 µM in [7]; 3.44 µM in assay [8]; 2.06 µM in [9]; 4.65 µM in assay [10]; 3.76 µM in [11]; 21.9 µM in assay [12]. For the same compound, the TGI in [13] was 7.37 µM; in assay [14] it was 7.11 µM; in [15], 7.49 µM; in [16], 5.12 µM; in [17], 8.2 µM; in assay [18] it was 3.71 µM. Further, the values for the TGI in [19] and in assay [20] were over 50.9 µM and over 42.6 µM, respectively.
